According to the supplement of paper PMC11451515:

System: P12-Ichikawa
Experiment: cell viability relative to DMSO control; higher = less cytotoxic
Conditions: 48 h
Method in brief: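 Three leukemia lines were tested: NOMO1 and SEM at 500 cells/well and P12-Ichikawa at 1000 cells/well. Each was adapted for at least four passages in each medium and seeded in 5 μl in 1536-well plates, and library compounds in DMSO were pin-dosed from 47 μM to 0.79 nM in 11 threefold steps. After 48 h at 37°C, CellTiter-Glo One luminescence was read. Viability is a percentage relative to DMSO wells on each plate, with cell-free wells as background.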

[1] = HPLM + 10% dialyzed FBS, 0.000781 µM
[2] = HPLM + 10% dialyzed FBS, 0.00234 µM
[3] = HPLM + 10% dialyzed FBS, 0.00702 µM
[4] = HPLM + 10% dialyzed FBS, 0.0211 µM
[5] = HPLM + 10% dialyzed FBS, 0.0632 µM
[6] = HPLM + 10% dialyzed FBS, 0.19 µM
[7] = HPLM + 10% dialyzed FBS, 0.569 µM
[8] = HPLM + 10% dialyzed FBS, 1.71 µM
[9] = HPLM + 10% dialyzed FBS, 5.12 µM
[10] = HPLM + 10% dialyzed FBS, 15.4 µM
[11] = HPLM + 10% dialyzed FBS, 46.1 µM
[12] = RPMI 5 mM glucose + 10% FBS, 0.000781 µM
[13] = RPMI 5 mM glucose + 10% FBS, 0.00234 µM
[14] = RPMI 5 mM glucose + 10% FBS, 0.00702 µM
[15] = RPMI 5 mM glucose + 10% FBS, 0.0211 µM
[16] = RPMI 5 mM glucose + 10% FBS, 0.0632 µM
[17] = RPMI 5 mM glucose + 10% FBS, 0.19 µM
[18] = RPMI 5 mM glucose + 10% FBS, 0.569 µM
[19] = RPMI 5 mM glucose + 10% FBS, 1.71 µM
[20] = RPMI 5 mM glucose + 10% FBS, 5.12 µM
[21] = RPMI 5 mM glucose + 10% FBS, 15.4 µM
[22] = RPMI 5 mM glucose + 10% FBS, 46.1 µM
[23] = RPMI 5 mM glucose + 10% dialyzed FBS, 0.000781 µM
[24] = RPMI 5 mM glucose + 10% dialyzed FBS, 0.00234 µM
[25] = RPMI 5 mM glucose + 10% dialyzed FBS, 0.00702 µM
[26] = RPMI 5 mM glucose + 10% dialyzed FBS, 0.0211 µM
[27] = RPMI 5 mM glucose + 10% dialyzed FBS, 0.0632 µM
[28] = RPMI 5 mM glucose + 10% dialyzed FBS, 0.19 µM
[29] = RPMI 5 mM glucose + 10% dialyzed FBS, 0.569 µM
[30] = RPMI 5 mM glucose + 10% dialyzed FBS, 1.71 µM
[31] = RPMI 5 mM glucose + 10% dialyzed FBS, 5.12 µM
[32] = RPMI 5 mM glucose + 10% dialyzed FBS, 15.4 µM
[33] = RPMI 5 mM glucose + 10% dialyzed FBS, 46.1 µM

Compound | cell viability [1] | cell viability [2] | cell viability [3] | cell viability [4] | cell viability [5] | cell viability [6] | cell viability [7] | cell viability [8] | cell viability [9] | cell viability [10] | cell viability [11] | cell viability [12] | cell viability [13] | cell viability [14] | cell viability [15] | cell viability [16] | cell viability [17] | cell viability [18] | cell viability [19] | cell viability [20] | cell viability [21] | cell viability [22] | cell viability [23] | cell viability [24] | cell viability [25] | cell viability [26] | cell viability [27] | cell viability [28] | cell viability [29] | cell viability [30] | cell viability [31] | cell viability [32] | cell viability [33]
CO[C@H]1C[C@@H]2CC[C@@H](C)[C@@](O)(O2)C(=O)C(=O)N2CCCC[C@H]2C(=O)O[C@H]([C@H](C)C[C@@H]2CC[C@@H](OC(=O)C(C)(CO)CO)[C@H](OC)C2)CC(=O)[C@H](C)/C=C(\C)[C@@H](O)[C@@H](OC)C(=O)[C@H](C)C[C@H](C)/C=C/C=C/C=C/1C | 110% | 117% | 113% | 106% | 104% | 107% | 100% | 96% | 87.2% | 83.4% | 77.9% | 92.8% | 111% | 97.6% | 97.8% | 94.1% | 90% | 87.6% | 84.4% | 65.8% | 63.3% | 50.1% | 94.3% | 110% | 110% | 92% | 92.8% | 96.7% | 85% | 89.8% | 78.2% | 66.5% | 52.5%
O=C(/C=C/c1cccc([S+](=O)([O-])Nc2ccccc2)c1)NO | 115% | 115% | 125% | 119% | 129% | 129% | 126% | 101% | 20.8% | 7.58% | 7.44% |  |  |  |  |  |  |  |  |  |  |  |  |  |  |  |  |  |  |  |  |  | 
OC[C@H](Cc1ccccc1)Nc1nc(Oc2ccc3c(c2)CCC3)nc2c1ncn2Cc1ccc(-c2ccccc2)cc1 | 93% | 94.1% | 98.7% | 102% | 96.4% | 99.1% | 105% | 94.3% | 95.4% | 82.7% | 79.2% | 90.8% | 93.3% | 89% | 90.5% | 94.7% | 89.5% | 91% | 97.3% | 90.1% | 86% | 75.1% | 79.6% | 88.4% | 90.9% | 99% | 99.8% | 89.3% | 90.8% | 87.7% | 88.9% | 72.4% | 68.4%
CC(=O)OCC(=O)[C@@]12\N=C(C)/O[C@@H]1C[C@H]3[C@@H]4CCC/5=C/C(=O)/C=C\[C@]5(C)[C@H]4[C@@H](O)C[C@]23C | 103% | 111% | 108% | 113% | 103% | 114% | 108% | 105% | 80.6% | 73% | 63.9% | 102% | 123% | 116% | 114% | 85.1% | 115% | 115% | 94.1% | 85.5% | 62.8% | 55% | 93.6% | 102% | 112% | 107% | 104% | 111% | 102% | 86.9% | 67.2% | 57.7% | 49.4%
CN1CCC(CC1)COC2=CN=C(N=C2)C3=CC(=CC=C3)CN4/N=C(\C=C/C4=O)C5=CC(=CC=C5)C#N | 103% | 112% | 112% | 114% | 119% | 112% | 114% | 123% | 113% | 112% | 105% | 107% | 113% | 111% | 102% | 122% | 118% | 118% | 111% | 123% | 112% | 113% | 117% | 112% | 119% | 112% | 130% | 123% | 131% | 120% | 118% | 121% | 122%
COC[C@@H](NC(C)=O)C(=O)NCc1ccccc1 | 117% | 101% | 107% | 118% | 118% | 110% | 110% | 111% | 113% | 104% | 12.8% | 94.8% | 100% | 112% | 112% | 113% | 121% | 111% | 110% | 106% | 110% | 53.5% | 105% | 118% | 106% | 110% | 96.9% | 109% | 108% | 116% | 104% | 109% | 59.8%
CCOC(=O)N1CCN(/[N+]([O-])=N/Oc2ccc([N+](=O)[O-])cc2[N+](=O)[O-])CC1 | 93.7% | 94.7% | 96% | 97.1% | 98.2% | 102% | 101% | 97% | 95.5% | 96.9% | 27.1% | 91.6% | 96.5% | 88% | 90.6% | 102% | 99.2% | 99.8% | 97.1% | 84.3% | 78.7% | 19.9% | 92% | 83.9% | 87.7% | 88.3% | 88.4% | 86.4% | 90.1% | 85.9% | 82.8% | 82.8% | 18.8%
C\C1=C\C(=O)C2=C(C=CC=C2)C1=O | 108% | 104% | 118% | 125% | 128% | 120% | 127% | 125% | 122% | 116% | 123% | 107% | 119% | 109% | 130% | 125% | 118% | 125% | 135% | 134% | 139% | 131% | 119% | 122% | 121% | 130% | 127% | 137% | 128% | 118% | 120% | 131% | 128%
O=C(CO)N1CCC(c2n[nH]c(-c3ccc(Cl)cc3)c2-c2ccncn2)CC1 | 119% | 104% | 113% | 112% | 113% | 109% | 105% | 100% | 97.7% | 55.7% | 68.4% | 117% | 112% | 118% | 122% | 114% | 113% | 114% | 110% | 87.8% | 24% | 58.5% | 122% | 116% | 114% | 116% | 117% | 114% | 113% | 101% | 97.7% | 21.7% | 55.4%
Cc1cccc(C)c1OCC(=O)N[C@@H](Cc1ccccc1)[C@@H](O)C[C@H](Cc1ccccc1)NC(=O)[C@H](C(C)C)N1CCCNC1=O | 99.5% | 96.1% | 98.2% | 102% | 95.7% | 97% | 91.9% | 89.1% | 90.2% | 86.2% | 61.8% | 98.5% | 101% | 93.9% | 96% | 102% | 99.6% | 97.4% | 91.7% | 91.3% | 87.1% | 56.8% | 91.6% | 87.8% | 94.1% | 88.7% | 91.2% | 90.1% | 93.6% | 79.2% | 85.6% | 83.9% | 54.8%
CC1(C)C(=O)N(CCN2CCC(C(=O)c3ccc(F)cc3)CC2)c2ccccc21 | 112% | 116% | 117% | 120% | 118% | 123% | 126% | 122% | 120% | 120% | 113% |  |  |  |  |  |  |  |  |  |  |  | 109% | 110% | 118% | 123% | 126% | 125% | 121% | 123% | 115% | 97.9% | 93.5%
CCC[C@H](N[C@@H](C)C(=O)N1[C@H](C(=O)O)C[C@@H]2CCCC[C@@H]21)C(=O)OCC | 110% | 108% | 109% | 113% | 104% | 115% | 112% | 109% | 93.2% | 88.1% | 84.7% | 106% | 103% | 121% | 112% | 117% | 108% | 106% | 97.9% | 77.1% | 79.5% | 71.6% | 124% | 99% | 113% | 111% | 122% | 116% | 103% | 110% | 87.3% | 78.3% | 69.8%
CCc1c(C(=O)C(N)=O)c2c(OCC(=O)O)cccc2n1Cc1ccccc1 | 105% | 112% | 112% | 105% | 107% | 111% | 106% | 111% | 103% | 107% | 99.5% | 102% | 101% | 102% | 104% | 105% | 98.1% | 96.5% | 99.4% | 94.8% | 93.6% | 95.3% | 99.4% | 107% | 102% | 98.4% | 99.9% | 94.4% | 91.8% | 97.3% | 92.3% | 95.8% | 91.3%
Oc1ccc(C2CCN(c3ccnc4ccccc34)CC2)cc1O | 102% | 118% | 111% | 113% | 112% | 117% | 110% | 106% | 70.8% | 67.4% | 63.4% | 112% | 110% | 109% | 125% | 122% | 107% | 113% | 110% | 71.5% | 55.1% | 48.5% | 96.5% | 113% | 106% | 110% | 107% | 112% | 111% | 97.5% | 59.2% | 45.8% | 40.8%
CC(C)Nc1cc(C(F)(F)F)cc2nc(NC(=O)c3cccnc3)nn12 | 113% | 115% | 117% | 116% | 108% | 107% | 108% | 10.1% | 12.6% | 14.6% | 33.5% |  |  |  |  |  |  |  |  |  |  |  | 121% | 115% | 113% | 113% | 116% | 114% | 111% | 28.2% | 24.1% | 24.9% | 37%
O=C1Nc2ccc(Cl)cc2[C@@](C#CC2CC2)(C(F)(F)F)O1 | 81.8% | 91.9% | 90.5% | 90.6% | 90.2% | 91.1% | 91.1% | 92.1% | 96.2% | 95% | 80% | 78.3% | 94.4% | 78.6% | 76.2% | 85.5% | 83.1% | 91.6% | 85% | 84.5% | 85.1% | 55.4% | 73.8% | 77.7% | 80.5% | 88.6% | 80.8% | 85.1% | 78.4% | 77.7% | 79.8% | 79% | 61.8%
